Source: patent publication US20080260857A1, “Substance and Method for Treating Neoplasms” (priority 2005, published 2008)

system: myeloma NS/0 cells; assay: Myeloma NS/0 tumor in mice; format: in vivo, DBA/BALB(F1) mice; settings: Table 3; i.p. 0.5 ml once a day for 5 days from day 3; Succinate 0.1 mg/mouse, IFN 10^5 IU/mouse, rubomicin 0.016 mg/mouse, etoposide 0.03 mg/mouse; day 21; light water 99.90%; mean ±SD (n=5)
Method: Procedure. DBA/BALB(F1) mice were injected i.p. with 3×10^6 myeloma NS/0 cells to induces tumor. Myeloma NS/O-bearing mice were treated for 5 days since the third day of tumor implantation singly a day with i.p. injection of 0.5 ml saline made on the control water or 0.5 ml saline made on light water. Tumor masses and percent of mitotic cells in bone marrow were measured on day 21. Data are presented in Table 2 as tumor mass mean ±SD (n=5).
Materials and tumor implantation procedure were as described in example 3. Interferon-alpha2b, rubomicin, and etoposide were used as typical anti-neoplasm agents.
Myeloma NS/O-bearing mice were treated for 5 days since the third day singly a day with i.p. injection of 0.5 ml saline made on the water (control), 0.5 ml solution of 0.1 mg/mouse disodium succinate hexahydrate (Succinate) made on the control water, 0.5 ml solution of 10^5 IU/mouse interferon-alpha2b (IFN) made on the control water, 0.5 ml solution of 0.016 mg/mouse rubomicin made on the control water, 0.5 ml solution of 0.03 mg/mouse etoposide made on the control water; 0.5 ml saline made on light water, or 0.5 ml solution of 0.1 mg/mouse disodium succinate hexahydrate (Succinate) made on the light water, and 0.5 ml solution of 10^5 IU/mouse interferon-alpha2b (IFN) made on the light water, 0.5 ml solution of 0.016 mg/mouse rubomicin made on the light water, 0.5 ml solution of 0.03 mg/mouse etoposide made on the light water. Tumor masses were measured on day 21. Data are presented in Table 3 as tumor mass mean ±SD (n=5).

Going from `O.O.O.O.O.O.O=C([O-])CCC(=O)[O-].[Na+].[Na+]` [Control water + Succinate, disodium succinate hexahydrate] to `COc1cc([C@@H]2c3cc4c(cc3[C@@H](O[C@@H]3O[C@@H]5CO[C@@H](C)O[C@H]5[C@H](O)[C@H]3O)[C@H]3COC(=O)[C@H]23)OCO4)cc(OC)c1O` [Control water + etoposide, etoposide], the “Tumor Mass” value falls from 1780 ± 220 mg/mouse to 1050 ± 120 mg/mouse.

“interferon-alpha2b [Control water + IFN]” and rubomicin [Control water + rubomicin] are within error of each other in “Tumor Mass” value: 1460 ± 180 mg/mouse for the first, 1270 ± 150 mg/mouse for the second.
